# Assay results as given in US20030118990A1, “Novel estrogen-regulated G protein gamma subunit: compositions and methods of use” (Schering Aktiengesellschaft, priority 2000, published 2003).
# System: mGγ12 mRNA
# Assay: Northern blot analysis of mGγ12 mRNA in liver of estrogen-treated mice
# Type: in vivo, mouse
# Conditions: liver RNA; normal male mice treated with estrogen vs ERKO male mice treated with estrogen and un-treated male mice; effect via estrogen receptor alpha, not beta
# Description: Expressed sequence tags (EST) that represent messenger RNA (mRNA) molecules that are more abundant in the liver of normal male mice treated with estrogen than in the liver of estrogen receptor alpha knockout (ERKO) male mice also treated with estrogen were obtained by subtraction cloning. The DNA sequence of complementary DNA (cDNA) clones representing the full-length mRNA molecules corresponding to one of the above mentioned EST's was obtained.
# Northern blot analysis was conducted with RNA prepared from the livers of normal male mice treated with estrogen, ERKO male mice treated with estrogen, and un-treated male mice using a hybridization probe derived from the mGγ12 cDNA.
substance,measurement,value
estrogen,transcription of the mGγ12 gene in the liver,activated
